Experimental data published in article PMC12455570 (2025).

Tested on: FAM-(CUG)10-BHQ (RNA, repeat) GCGCUGCUGCUGCUGCUGCUGAAAAGCUGCUGCUGCUGCUGCGC
Assay: FAM/BHQ fluorescence thermal melting
Details: 5 μM compound

CC1CCCn2cc(-c3cccc(NC(=O)CCCCCCNCCCCNCCCCCCC(=O)Nc4cccc(-c5cn6c(n5)C(C)CCC6)c4)c3)nc21 (stereo not shown)
ΔTm: 3.1 ± 0.7 °C
